Test results from patent publication US12440435B2, “Solubilization of poorly soluble cooling substances” (SYMRISE AG, priority 2018, dated 2025).

Test: Dissolving the cooling agent in a solvent with stepwise heating, then cooling to room temperature and observing crystallisation
Assay type: physicochemical

amount of cooling agent that can be dissolved (in 2-hydroxypropyl (2-isopropyl-5-methyl-cyclohexyl) carbonate, (2-isopropyl-5-methyl-cyclohexyl) 2-hydroxypropanoate or a mixture of both, based on the total weight of the composition): up to 12 % by weight
solubility in medium-chain triglycerides (medium-chain triglycerides as solvent, even at 60° C.): insoluble
Compound: COc1ccc(NC(=O)[C@@H]2C[C@H](C)CC[C@H]2C(C)C)cc1 [(1R,2S,5R)-N-(4-methoxyphenyl)-5-methyl-2-(1-methylethyl)-cyclohexane-carboxamide]
